Measured values as given in patent US8476253B2, “Amide derivative” (Daiichi Sankyo Company, Limited, priority 2009, dated 2013).
Structures can show the parent of a compound that is named as a salt. Where two headings read alike, the source gives them in different places.

Tests used:
neurokinin NK1 receptor = target: T1, neurokinin NK1 receptor (Cavia porcellus, UniProt P30547); experiment: Effect of suppressing substance P-induced airway contraction (in vivo, intratracheal administration); parameters: species or system guinea pig; settings: guinea pigs, intratracheal administration 60 minutes before 20 μg/kg i.v. SP, AUC of increase in airway pressure over 10 minutes; for ED50: guinea pig, read-out: ID50 (the source's name)
T1 construct: Using healthy guinea pigs (body weight, 350 to 550 g; Hartley male guinea pigs); from tissue; host or cells: live anaesthetised Hartley male guinea pigs (airway, in vivo)
T1 sequence (P30547 whole entry): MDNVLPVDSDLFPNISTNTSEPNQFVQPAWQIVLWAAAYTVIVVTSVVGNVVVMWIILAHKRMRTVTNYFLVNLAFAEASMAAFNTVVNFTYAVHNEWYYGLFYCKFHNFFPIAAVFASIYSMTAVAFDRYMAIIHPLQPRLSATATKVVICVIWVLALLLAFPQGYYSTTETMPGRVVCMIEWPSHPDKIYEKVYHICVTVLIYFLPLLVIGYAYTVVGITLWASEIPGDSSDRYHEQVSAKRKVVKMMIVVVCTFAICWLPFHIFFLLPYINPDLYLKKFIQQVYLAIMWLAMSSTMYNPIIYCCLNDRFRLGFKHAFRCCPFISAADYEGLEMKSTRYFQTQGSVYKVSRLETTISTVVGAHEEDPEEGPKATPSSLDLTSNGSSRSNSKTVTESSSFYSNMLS
Method in brief: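 Anaesthetised, gallamine-paralysed, ventilated male Hartley guinea pigs; compound in 5% glucose given intratracheally 60 min before 20 μg/kg i.v. substance P. Airway-pressure increase AUC over 10 min, inhibition versus vehicle group, expressed as ID50.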

human M3 receptor = target: T2, human M3 receptor (Homo sapiens, UniProt P20309); experiment: Test for binding to human M3 receptor
T2 construct: expressed in transfected cells; host or cells: CHO cells
T2 sequence (P20309 whole entry): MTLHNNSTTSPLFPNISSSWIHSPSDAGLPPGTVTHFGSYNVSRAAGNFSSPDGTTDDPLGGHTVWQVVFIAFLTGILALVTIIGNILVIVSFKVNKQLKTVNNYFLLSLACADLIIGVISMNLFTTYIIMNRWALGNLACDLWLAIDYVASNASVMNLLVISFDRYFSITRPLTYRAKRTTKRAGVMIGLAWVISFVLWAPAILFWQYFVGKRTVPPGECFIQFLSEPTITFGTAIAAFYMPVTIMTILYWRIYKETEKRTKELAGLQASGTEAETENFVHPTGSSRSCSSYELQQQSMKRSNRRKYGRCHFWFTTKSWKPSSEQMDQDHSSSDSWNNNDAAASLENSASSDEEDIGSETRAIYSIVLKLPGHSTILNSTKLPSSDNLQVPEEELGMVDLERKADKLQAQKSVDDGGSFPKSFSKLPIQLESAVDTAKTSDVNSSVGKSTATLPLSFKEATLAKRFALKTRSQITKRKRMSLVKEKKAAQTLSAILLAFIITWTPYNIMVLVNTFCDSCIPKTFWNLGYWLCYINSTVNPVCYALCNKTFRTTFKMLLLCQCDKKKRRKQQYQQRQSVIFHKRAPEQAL
Method in brief: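 CHO-cell crude membranes expressing human M3 were incubated with [N-methyl-3H]-(−)-scopolamine methyl chloride in 50 mM Tris-HCl, 0.5 mM EDTA, pH 7.4, for 60 min at room temperature. Bound ligand was collected on PEI-pretreated glass-fibre filters and counted by liquid scintillation. Ki was calculated from IC50 and the radioligand Kd.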

human NK2 receptor = target: T3, human NK2 receptor (Homo sapiens, UniProt P21452); experiment: Test for binding to human NK2 receptor
T3 construct: expressed in transfected cells; host or cells: COS cells
T3 sequence (P21452 1-398): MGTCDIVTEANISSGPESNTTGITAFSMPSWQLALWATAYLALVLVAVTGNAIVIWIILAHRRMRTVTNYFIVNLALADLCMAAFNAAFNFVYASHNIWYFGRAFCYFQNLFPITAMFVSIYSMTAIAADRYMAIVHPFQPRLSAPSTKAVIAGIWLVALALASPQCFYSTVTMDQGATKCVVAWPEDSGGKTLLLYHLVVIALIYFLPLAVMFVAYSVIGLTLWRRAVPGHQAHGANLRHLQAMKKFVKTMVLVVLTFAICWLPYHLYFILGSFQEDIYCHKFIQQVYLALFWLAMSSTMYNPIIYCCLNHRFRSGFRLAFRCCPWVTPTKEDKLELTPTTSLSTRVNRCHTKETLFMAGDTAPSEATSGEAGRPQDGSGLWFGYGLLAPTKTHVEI
Method in brief: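 Radioligand binding with [^3H]SR 48968 on cryopreserved COS cells expressing human NK2 receptor (5.0×10^5 cells/mL), in 50 mM Tris-HCl pH 7.4 with BSA, MnCl2 and protease inhibitors. Bound label collected on PEI-treated GF/B filters, counted by liquid scintillation; Ki derived from IC50 and radioligand Kd.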

[1] = CHO cells expressing human M3 receptor, [N-methyl-3H]-(-)-Scopolamine methyl chloride 0.5 nM, Ki from IC50 and Kd, read-out: Ki
[2] = COS cells expressing human NK2 receptor, [3H]SR 48968 1 nM, Ki from IC50 and Kd, read-out: Ki

Structure (SMILES)	ED50 (neurokinin NK1 receptor) [mg/kg]	Ki (human M3 receptor; [1]) [nM]	Ki (human NK2 receptor; [2]) [nM]	Ki (human M3 receptor) [nM]	Ki (human NK2 receptor) [nM]	ID50 (neurokinin NK1 receptor) [mg/kg]
CN(CCN1CCC(OC(=O)Nc2ccccc2-c2ccccc2)CC1)C(=O)CCN(C)c1ccc(C(=O)N(C)CCCN(C)C(=O)CO[C@H]2Cc3ccccc3C23CCN(CC[C@@]2(c4ccc(F)cc4)CN(C(=O)c4cc(C(F)(F)F)cc(C(F)(F)F)c4)CO2)CC3)cc1 [Example 95, 1-{2-[(N-{4-[{3-[({[(2S)-1′-{2-[(5R)-3-[3,5-Bis(trifluoromethyl)benzoyl]-5-(4-fluorophenyl)-1,3-oxazolidin-5-yl]ethyl}-2,3-dihydrospiro[indene-1,4′-piperidin]-2-yl]oxy}acetyl)(methy)amino]propyl}(methyl)carbamoyl]phenyl}-N-methyl-β-alanyl)(methyl)amino]ethyl}piperidin-4-yl biphenyl-2-ylcarbamate]	0.0225	2.1	0.81	–	–	–
CN(CCN1CCC(OC(=O)Nc2ccccc2-c2ccccc2)CC1)C(=O)CCCCCNc1ccc(C(=O)N(CCCN(C)C(=O)CO[C@H]2Cc3ccccc3C23CCN(CC[C@@]2(c4ccc(F)cc4)CN(C(=O)c4cc(C(F)(F)F)cc(C(F)(F)F)c4)CO2)CC3)C2CC2)cc1 [Example 25, 1-(2-{[6-({4-[{3-[({[(2S)-1′-{2-[(5R)-3-[3,5-Bis(trifluoromethyl)benzoyl]-5-(4-fluorophenyl)-1,3-oxazolidin-5-yl]ethyl}-2,3-dihydrospiro[indene-1,4′-piperidin]-2-yl]oxy}acetyl)(methyl)amino]propyl}(cyclopropyl)carbamoyl]phenyl}amino)hexanoyl](methyl)amino}ethyl)piperidin-4-yl biphenyl-2-ylcarbamate trihydrochloride]	0.0437	–	–	1.4	0.77	–
CN(CCN1CCC(OC(=O)Nc2ccccc2-c2ccccc2)CC1)C(=O)CCCCCNc1cccc(C(=O)N(C)CCCN(C)C(=O)CO[C@H]2Cc3ccccc3C23CCN(CC[C@@]2(c4ccc(F)cc4)CN(C(=O)c4cc(C(F)(F)F)cc(C(F)(F)F)c4)CO2)CC3)c1 [Example 43, 1-(2-{[6-({3-[{3-[({[(2S)-1′-{2-[(5R)-3-[3,5-Bis(trifluoromethyl)benzoyl]-5-(4-fluorophenyl)-1,3-oxazolidin-5-yl]ethyl}-2,3-dihydrospiro[indene-1,4′-piperidin]-2-yl]oxy}acetyl)(methyl)amino]propyl}(methyl)carbamoyl]phenyl}amino)hexanoyl](methyl)amino}ethyl)piperidin-4-yl biphenyl-2-ylcarbamate trihydrochloride]	0.0766	–	–	2.6	1.3	–
CN(CCN1CCC(OC(=O)Nc2ccccc2-c2ccccc2)CC1)C(=O)COCCCNc1ccc(C(=O)N(C)CCCN(C)C(=O)CO[C@H]2Cc3ccccc3C23CCN(CC[C@@]2(c4ccc(F)cc4)CN(C(=O)c4cc(C(F)(F)F)cc(C(F)(F)F)c4)CO2)CC3)cc1 [Example 27, 1-{2-[{[3-({4-[{3-[({[(2S)-1′-{2-[(5R)-3-[3,5-Bis(trifluoromethyl)benzoyl]-5-(4-fluorophenyl)-1,3-oxazolidin-5-yl]ethyl}-2,3-dihydrospiro[indene-1,4′-piperidin]-2-yl]oxy}acetyl)(methyl)amino]propyl}(methyl)carbamoyl]phenyl}amino)propoxy]acetyl}(methyl)amino]ethyl}piperidin-4-yl biphenyl-2-ylcarbamate trihydrochloride]	0.0229	–	–	1.4	0.76	–
CN(CCN1CCC(OC(=O)Nc2ccccc2-c2ccccc2)CC1)C(=O)CCCCNc1ccc(C(=O)N(C)CCCN(C)C(=O)CO[C@H]2Cc3ccccc3C23CCN(CC[C@@]2(c4ccc(F)cc4)CN(C(=O)c4cc(C(F)(F)F)cc(C(F)(F)F)c4)CO2)CC3)cc1 [Example 32, 1-(2-{[5-({4-[{3-[({[(2S)-1′-{2-[(5R)-3-[3,5-Bis(trifluoromethyl)benzoyl]-5-(4-fluorophenyl)-1,3-oxazolidin-5-yl]ethyl}-2,3-dihydrospiro[indene-1,4′-piperidin]-2-yl]oxy}acetyl)(methyl)amino]propyl}(methyl)carbamoyl]phenyl}amino)pentanoyl](methyl)amino}ethyl)piperidin-4-yl biphenyl-2-ylcarbamate trihydrochloride]	0.0202	–	–	1.1	0.74	–
CN(CCN1CCC(OC(=O)Nc2ccccc2-c2ccccc2)CC1)C(=O)CCCCCNc1ccc(C(=O)N(C)CCCN(C)C(=O)CO[C@H]2Cc3ccccc3C23CCN(CC[C@@]2(c4ccc(F)cc4)CN(C(=O)c4cc(C(F)(F)F)cc(C(F)(F)F)c4)CO2)CC3)cc1 [Example 72, 1-(2-{[6-({4-[{3-[({[(2S)-1′-{2-[(5R)-3-[3,5-Bis(trifluoromethyl)benzoyl]-5-(4-fluorophenyl)-1,3-oxazolidin-5-yl]ethyl}-2,3-dihydrospiro[indene-1,4′-piperidin]-2-yl]oxy}acetyl)(methyl)amino]propyl}(methyl)carbamoyl]phenyl}amino)hexanoyl](methyl)amino}ethyl)piperidin-4-yl biphenyl-2-ylcarbamate]	0.0266	1.6	0.52	–	–	–
CN(CCCCCC(=O)N(C)CCN1CCC(OC(=O)Nc2ccccc2-c2ccccc2)CC1)Cc1ccc(C(=O)N(C)CCCN(C)C(=O)CO[C@H]2Cc3ccccc3C23CCN(CC[C@@]2(c4ccc(F)cc4)CN(C(=O)c4cc(C(F)(F)F)cc(C(F)(F)F)c4)CO2)CC3)cc1 [Example 74, 1-{2-[{6-[{4-[{3-[({[(2S)-1′-{2-[(5R)-3-[3,5-Bis(trifluoromethyl)benzoyl]-5-(4-fluorophenyl)-1,3-oxazolidin-5-yl]ethyl}-2,3-dihydrospiro[indene-1,4′-piperidin]-2-yl]oxy}acetyl)(methyl)amino]propyl}(methyl)carbamoyl]benzyl}(methyl)amino]hexanoyl}(methyl)amino]ethyl}piperidin-4-yl biphenyl-2-ylcarbamate]	0.0174	0.32	0.14	–	–	–
CN(CCN1CCC(OC(=O)Nc2ccccc2-c2ccccc2)CC1)C(=O)CCCCN(C)c1ccc(C(=O)N(C)CCCN(C)C(=O)CO[C@H]2Cc3ccccc3C23CCN(CC[C@@]2(c4ccc(F)cc4)CN(C(=O)c4cc(C(F)(F)F)cc(C(F)(F)F)c4)CO2)CC3)cc1 [Example 38, 1-{2-[{5-[{4-[{3-[({[(2S)-1′-{2-[(5R)-3-[3,5-Bis(trifluoromethyl)benzoyl]-5-(4-fluorophenyl)-1,3-oxazolidin-5-yl]ethyl}-2,3-dihydrospiro[indene-1,4′-piperidin]-2-yl]oxy}acetyl)(methy)amino]propyl}(methyl)carbamoyl]phenyl}(methyl)amino]pentanoyl}(methyl)amino]ethyl}piperidin-4-yl biphenyl-2-ylcarbamate trihydrochloride]	0.0161	1.8	0.89	–	–	–
CN(CCN1CCC(OC(=O)Nc2ccccc2-c2ccccc2)CC1)C(=O)CCCCCN(C)c1ccc(C(=O)N(C)CCCN(C)C(=O)CO[C@H]2Cc3ccccc3C23CCN(CC[C@@]2(c4ccc(F)cc4)CN(C(=O)c4cc(C(F)(F)F)cc(C(F)(F)F)c4)CO2)CC3)cc1 [Example 76, 1-{2-[{6-[{4-[{3-[({[(2S)-1′-{2-[(5R)-3-[3,5-Bis(trifluoromethyl)benzoyl]-5-(4-fluorophenyl)-1,3-oxazolidin-5-yl]ethyl}-2,3-dihydrospiro[indene-1,4′-piperidin]-2-yl]oxy}acetyl)(methyl)amino]propyl}(methyl)carbamoyl]phenyl}(methyl)amino]hexanoyl}(methyl)amino]ethyl}piperidin-4-yl biphenyl-2-ylcarbamate]	0.0622	3.4	1	–	–	–
CN(CCN1CCC(OC(=O)Nc2ccccc2-c2ccccc2)CC1)C(=O)CCCCCNc1nc2ccc(C(=O)N(C)CCCN(C)C(=O)CO[C@H]3Cc4ccccc4C34CCN(CC[C@@]3(c5ccc(F)cc5)CN(C(=O)c5cc(C(F)(F)F)cc(C(F)(F)F)c5)CO3)CC4)cc2s1 [Example 93, 1-(2-{[6-({6-[{3-[({[(2S)-1′-{2-[(5R)-3-[3,5-Bis(trifluoromethyl)benzoyl]-5-(4-fluorophenyl)-1,3-oxazolidin-5-yl]ethyl}-2,3-dihydrospiro[indene-1,4′-piperidin]-2-yl]oxy}acetyl)(methy)amino]propyl}(methyl)carbamoyl]-1,3-benzothiazol-2-yl}amino)hexanoyl](methyl)amino}ethyl)piperidin-4-yl biphenyl-2-ylcarbamate]	–	0.6	0.55	–	–	0.0416
